Assay results reported in PubChem BioAssay AID330 (DTP/NCI, 2004).
Several values for one entry are separate records, joined by “and”; a condition that tells them apart may be missing. Equal values may be shown once. Toxic doses and inconclusive results are not listed.

Test system: P388 leukemia ip, CD2F1 mice, survival T/C
Experiment: NCI In Vivo Anticancer Drug Screen. Data for tumor model P388 Leukemia (intraperitoneal) in CD2F1 (CDF1) mice
Conditions: endpoint: median survival time, higher = longer survival
Procedure, shortened: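 Mice carrying the transplanted tumor received test compound or vehicle. Survival was recorded in each group, and the value is the treated-group measurement divided by that of the vehicle-treated control group.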

[1] = dose: 12.5 mg/kg/injection, schedule: Q01DX009 (ip), vehicle: saline with Tween-80
[2] = dose: 100.0 mg/kg/injection, schedule: Q01DX009 (ip), vehicle: saline with Tween-80
[3] = dose: 50.0 mg/kg/injection, schedule: Q01DX005 (ip), vehicle: Klucel (hydroxypropylcellulose) (HPC)
[4] = dose: 100.0 mg/kg/injection, schedule: Q01DX005 (ip), vehicle: Klucel (hydroxypropylcellulose) (HPC)
[5] = dose: 200.0 mg/kg/injection, schedule: Q01DX005 (ip), vehicle: Klucel (hydroxypropylcellulose) (HPC)
[6] = dose: 25.0 mg/kg/injection, schedule: Q01DX005 (ip), vehicle: Klucel (hydroxypropylcellulose) (HPC)
[7] = dose: 60.0 mg/kg/injection, schedule: Q01DX005 (ip), vehicle: saline with Tween-80
[8] = dose: 120.0 mg/kg/injection, schedule: Q01DX005 (ip), vehicle: saline with Tween-80

## C[CH2][Sn]([CH2]C)([CH2]C(=O)OC)[CH2]C(=O)OC
dose: 9.0 mg/kg/injection, schedule: Q03HX015 (ip), vehicle: saline with Tween-80
  T/C: 153 % of control
[1]
  T/C: 170 % of control
dose: 18.0 mg/kg/injection, schedule: Q01DX005 (ip), vehicle: saline with Tween-80
  T/C: 150 % of control
[2]
  T/C: 174 % of control

## O=C1NC(=O)C(O)(C2=C(O)CCCC2=O)C(=O)N1
dose: 50.0 mg/kg/injection, schedule: Q01DX005 (ip), vehicle: saline with Tween-80
  T/C: 99 % of control
dose: 100.0 mg/kg/injection, schedule: Q01DX005 (ip), vehicle: saline with Tween-80
  T/C: 103 % of control
dose: 200.0 mg/kg/injection, schedule: Q01DX005 (ip), vehicle: saline with Tween-80
  T/C: 94 % of control

## Cc1c2ccncc2c(CNC(=O)CCC(=O)NCc2c3cnccc3c(C)c3c2c2ccccc2n3C)c2c3ccccc3n(C)c12
dose: 6.25 mg/kg/injection, schedule: Q04DX002 (ip), vehicle: saline with Tween-80
  T/C: 108 % of control
dose: 12.5 mg/kg/injection, schedule: Q04DX002 (ip), vehicle: saline with Tween-80
  T/C: 103 % of control
dose: 25.0 mg/kg/injection, schedule: Q04DX002 (ip), vehicle: saline with Tween-80
  T/C: 102 % of control
dose: 50.0 mg/kg/injection, schedule: Q04DX002 (ip), vehicle: saline with Tween-80
  T/C: 102 % of control

## O=C1C2CCC(C2)[CH]1[Hg][Cl] (stereo not given)
dose: 6.25 mg/kg/injection, schedule: Q01DX009 (ip), vehicle: saline with Tween-80
  T/C: 107 % of control
[1]
  T/C: 112 % of control
dose: 25.0 mg/kg/injection, schedule: Q01DX009 (ip), vehicle: saline with Tween-80
  T/C: 88 % of control

## COc1cc(NCCCCCN=C(N)NC#N)c2ncccc2c1
[3]
  T/C: 99 % of control
[4]
  T/C: 98 % of control
[5]
  T/C: 92 % of control

## CCC(c1ccc(Cl)cc1)C(C#N)c1ccccc1 (stereo not given)
dose: 100.0 mg/kg/injection, schedule: Q04DX003 (ip), vehicle: saline with Tween-80
  T/C: 100 % of control
dose: 200.0 mg/kg/injection, schedule: Q04DX003 (ip), vehicle: saline with Tween-80
  T/C: 97 % of control
dose: 400.0 mg/kg/injection, schedule: Q04DX003 (ip), vehicle: saline with Tween-80
  T/C: 100 % of control

## N#CC1=C(Nc2ccccc2)SC(c2cccs2)NC1=O (stereo not given)
dose: 60.0 mg/kg/injection, schedule: Q01DX005 (ip), vehicle: Klucel (hydroxypropylcellulose) (HPC)
  T/C: 108 % of control
dose: 120.0 mg/kg/injection, schedule: Q01DX005 (ip), vehicle: Klucel (hydroxypropylcellulose) (HPC)
  T/C: 108 % of control

## CC12CC3(C)CC(C)(C1)CC(C(Cl)C(=O)NC(C)(C)C)(C2)C3 (stereo not given)
dose: 50.0 mg/kg/injection, schedule: Q01DX009 (ip), vehicle: Klucel (hydroxypropylcellulose) (HPC)
  T/C: 97 % of control
dose: 100.0 mg/kg/injection, schedule: Q01DX009 (ip), vehicle: Klucel (hydroxypropylcellulose) (HPC)
  T/C: 93 % of control
dose: 200.0 mg/kg/injection, schedule: Q01DX009 (ip), vehicle: Klucel (hydroxypropylcellulose) (HPC)
  T/C: 107 % of control

## COc1cc(C)c(C)cc1C1(c2cc(C)c(C)cc2O)C(=O)c2ccccc2C1=O
dose: 50.0 mg/kg/injection, schedule: Q01DX009 (ip), vehicle: saline
  T/C: 100 % of control
dose: 100.0 mg/kg/injection, schedule: Q01DX009 (ip), vehicle: saline
  T/C: 93 % of control

## C(=C\c1ccncc1)/c1ccccc1
[3]
  T/C: 92 % of control
[4]
  T/C: 90 % of control

## CSc1nccc2ccccc12
dose: 12.5 mg/kg/injection, schedule: Q01DX009 (ip), vehicle: other
  T/C: 96 % of control
dose: 25.0 mg/kg/injection, schedule: Q01DX009 (ip), vehicle: other
  T/C: 93 % of control
dose: 50.0 mg/kg/injection, schedule: Q01DX009 (ip), vehicle: other
  T/C: 118 % of control

## CN(C)C1C(=O)C(C(N)=O)=C(O)C2(O)C(=O)C3=C(O)c4c(O)cccc4C(C)(O)C3CC12 (stereo not given)
[6]
  T/C: 94 % of control
[3]
  T/C: 95 % of control
[4]
  T/C: 95 % of control

## Cc1nc(O)c(-c2ccc(Cl)cc2)s1
dose: 50.0 mg/kg/injection, schedule: Q01DX009 (ip), vehicle: saline with Tween-80
  T/C: 102 % of control
[2]
  T/C: 103 % of control
dose: 200.0 mg/kg/injection, schedule: Q01DX009 (ip), vehicle: saline with Tween-80
  T/C: 101 % of control

## O=C(Nc1ccc(N=C(Nc2ccccc2)c2ccccc2)cc1)c1ccc(C(=O)Nc2ccc(N=C(Nc3ccccc3)c3ccccc3)cc2)cc1
[6]
  T/C: 98 % of control
[3]
  T/C: 91 % of control
[4]
  T/C: 91 % of control
[5]
  T/C: 86 % of control

## O=C1C=CC(=O)c2c(O)ccc(O)c21
dose: 0.2 mg/kg/injection, schedule: Q01DX005 (ip), vehicle: saline with Tween-80
  T/C: 102 % of control
dose: 0.4 mg/kg/injection, schedule: Q01DX005 (ip), vehicle: saline with Tween-80
  T/C: 97 % of control
dose: 0.8 mg/kg/injection, schedule: Q01DX005 (ip), vehicle: saline with Tween-80
  T/C: 98 % of control
dose: 1.0 mg/kg/injection, schedule: Q04DX003 (ip), vehicle: saline with Tween-80
  T/C: 100 % of control
dose: 2.0 mg/kg/injection, schedule: Q04DX003 (ip), vehicle: saline with Tween-80
  T/C: 104 % of control
dose: 4.0 mg/kg/injection, schedule: Q04DX003 (ip), vehicle: saline with Tween-80
  T/C: 100 % of control

## C1CCCCC2=NCCC(CCCC1)C2 (stereo not given)
[3]
  T/C: 103 % of control
[4]
  T/C: 107 % of control

## O=c1nc(Oc2ccc(Cl)cc2Cl)oc2cc(Cl)ccc12
[7]
  T/C: 94 % of control
[8]
  T/C: 94 % of control

## Cc1c2ccccc2c(CSC(=N)N)c2ccccc12
dose: 0.44 mg/kg/injection, schedule: Q01DX009 (ip), vehicle: saline
  T/C: 110 % of control
dose: 0.66 mg/kg/injection, schedule: Q01DX009 (ip), vehicle: saline
  T/C: 110 % of control
dose: 1.0 mg/kg/injection, schedule: Q01DX009 (ip), vehicle: saline
  T/C: 110 % of control
dose: 1.47 mg/kg/injection, schedule: Q01DX009 (ip), vehicle: saline
  T/C: 160 % of control
dose: 1.5 mg/kg/injection, schedule: Q01DX009 (ip), vehicle: saline
  T/C: 105 % of control and 120 % of control
dose: 2.2 mg/kg/injection, schedule: Q01DX009 (ip), vehicle: saline
  T/C: 160 % of control
dose: 3.3 mg/kg/injection, schedule: Q01DX009 (ip), vehicle: saline
  T/C: 165 % of control
dose: 5.0 mg/kg/injection, schedule: Q01DX009 (ip), vehicle: saline
  T/C: 150 % of control and 185 % of control

## C[C@]12CCC(=O)C=C1CC[C@@H]1[C@@H]2CC[C@@]2(C)[C@H]1CCCN2CCO
dose: 25.0 mg/kg/injection, schedule: Q01DX001 (ip), vehicle: Klucel (hydroxypropylcellulose) (HPC)
  T/C: 99 % of control
dose: 50.0 mg/kg/injection, schedule: Q01DX001 (ip), vehicle: Klucel (hydroxypropylcellulose) (HPC)
  T/C: 103 % of control
dose: 100.0 mg/kg/injection, schedule: Q01DX001 (ip), vehicle: Klucel (hydroxypropylcellulose) (HPC)
  T/C: 99 % of control and 97 % of control

## CCOC(=O)c1c(C)[nH]c(-c2ccccc2)c1NS(=O)(=O)c1ccc(N)cc1
[7]
  T/C: 93 % of control
[8]
  T/C: 94 % of control

## CCCCCCCC1SC(=S)NC1=O (stereo not given)
dose: 6.25 mg/kg/injection, schedule: Q04DX003 (ip), vehicle: other
  T/C: 109 % of control
dose: 12.5 mg/kg/injection, schedule: Q04DX003 (ip), vehicle: other
  T/C: 101 % of control
dose: 25.0 mg/kg/injection, schedule: Q04DX003 (ip), vehicle: other
  T/C: 108 % of control
dose: 50.0 mg/kg/injection, schedule: Q04DX003 (ip), vehicle: other
  T/C: 108 % of control
dose: 100.0 mg/kg/injection, schedule: Q04DX003 (ip), vehicle: other
  T/C: 101 % of control

## CCCCCOCCCCC
dose: 25.0 mg/kg/injection, schedule: Q01DX005 (ip), vehicle: saline
  T/C: 100 % of control
dose: 50.0 mg/kg/injection, schedule: Q01DX005 (ip), vehicle: saline
  T/C: 99 % of control
dose: 100.0 mg/kg/injection, schedule: Q01DX005 (ip), vehicle: saline
  T/C: 95 % of control
dose: 200.0 mg/kg/injection, schedule: Q01DX005 (ip), vehicle: saline
  T/C: 96 % of control

## Cc1ccc(C(C)C)cc1NC(=O)c1cccnc1
dose: 50.0 mg/kg/injection, schedule: Q04DX002 (ip), vehicle: Klucel (hydroxypropylcellulose) (HPC)
  T/C: 98 % of control
dose: 100.0 mg/kg/injection, schedule: Q04DX002 (ip), vehicle: Klucel (hydroxypropylcellulose) (HPC)
  T/C: 102 % of control
dose: 200.0 mg/kg/injection, schedule: Q04DX002 (ip), vehicle: Klucel (hydroxypropylcellulose) (HPC)
  T/C: 92 % of control

## CC1=Nc2ccccc2S/C1=C(/C)NN
dose: 100.0 mg/kg/injection, schedule: Q01DX001 (ip), vehicle: saline with Tween-80
  T/C: 104 % of control
dose: 200.0 mg/kg/injection, schedule: Q01DX001 (ip), vehicle: saline with Tween-80
  T/C: 104 % of control
dose: 400.0 mg/kg/injection, schedule: Q01DX001 (ip), vehicle: saline with Tween-80
  T/C: 95 % of control
